The source of these data is publication PMC7482845, “G10 is a direct activator of human STING” (PLoS ONE, 2020).

The subject of series [1] is human PBMCs and umbilical endothelial cells. On the set-up: method as in PMID 26646986. The following applies: cited from earlier work.
In series [2] the target is R232 STING (R232-HEK293T cells) (Homo sapiens, UniProt Q86WV6, H232R). Briefly: Ligand induced change in STING melting temperature, R232-HEK293T whole cells. The note with it: whole cells (S8 and S9 Figs).
Protocol: Two sources of STING (ER fraction of N-His R232.hSTING HEK293T and R232.hSTING HEK293T whole cells) were used for melting temperature experiments. […] (b) 5 x 10^5 R232.hSTING cells were seeded in 24-well plates in 500 μl growth medium and stimulated with serially diluted concentrations of agonist. After 2hr of stimulation cells were harvested through centrifugation and 20 μl cells suspensions were transferred into 0.2 ml PCR-tubes and heated as above. All procedures were identical post-heating of samples. […] Precipitated proteins were separated from the soluble fraction by centrifugation at 21000g for 20 min at 4 °C. Extracted soluble protein was electrophoresed in 10% SDS-PAGE gels and transferred onto Immobilon-P membranes (Millipore). Blots were incubated with antibodies specific for total STING (Cell Signaling).
A further series has as its target T1, HAQ STING (THP-1 cells) (Homo sapiens, UniProt Q86WV6, G230A/R293Q/R71H).
T1 construct: THP1 cells constitutively express the HAQ variant of human STING; host or cells: THP-1
Briefly: THP1 cellular assay (EC50). Format: cell-based. The following applies: THP-1 cells (HAQ STING).

Series [3] has as its target T2, mSTING (wild type CT26 cells) (Mus musculus, UniProt Q3TBT3).
T2 construct: endogenous in cells; host or cells: CT26 (parent line, and the endogenous protein in R232.hSTING.CT26)
Nature of the series: Western blot of pSTING and pIRF3 in parent CT26 cells. Format: cell-based. The note with it: immunoblot (S10 Fig). On the procedure:
5 x 10^5 cells were seeded in 24-well plates in 500 μl growth medium and stimulated with novel compounds at 10μM. After 2 hours of treatment cells were harvested by centrifugation and cell pellets were lysed in RIPA buffer (20mM Tris-Cl, 150mM NaCl, 0.5mM EDTA, 1% NP40, 0.05% SDS) containing 1x phosphatase inhibitor cocktail 3 (Sigma) and 1x protease inhibitor (Roche) to extract the soluble fraction of protein. 10 μg of extracted protein was electrophoresed in 10% SDS-PAGE gels and transferred onto Immobilon-P membranes (Millipore). […] Anti-rabbit HRP label secondary antibody (Abcam) and Clarity Max™ western ECL substrate (Biorad—cat# 1705062) were used for visualization of bands using a BioRad XRS plus imager.

Series [4] in a line: Solubility under assay conditions. Format: physicochemical. The following applies: under our assay conditions; read-out: maximum solubility.
For the next series, the target named is T3, Q variant of human STING (Homo sapiens, UniProt Q86WV6, R293Q).
T3 construct: expressed in transfected cells
Nature of the series: Luciferase (ISRE.ISG reporter) assay in HEK293T cells stably expressing Q hSTING. Format: cell-based. The text has this:
(§1) • a) Stable STING expressing cells. Stable HEK293T STING-expressing cell lines were generated using plasmids purchased from Invivogen, CA, USA, that contain STING cDNA cloned into the pUNO-1 vector under the hEF1-HTLV promoter as well as the Blasticidin selection cassette. The human STING plasmids corresponding to the R232, H232 and HAQ variants were directly procured from Invivogen while the AQ and Q variants were created by mismatch PCR using cDNA from HAQ.STING and R232.STING variants respectively. These vectors were individually transfected into HEK293T cells using Lipofectamine (Invitrogen) and transfected cells were expanded under Blasticidin selection. These cells were further subjected to clonal selection using the limiting dilution method to obtain clonally pure populations of HEK293T cells expressing each of the five human STING variants. Clones with minimal ligand independent activation of STING were chosen for cellular experiments. • b) N-His R232.hSTING HEK293T cells. […]
(§2) […] clonally selected HEK293T-hSTING-Luciferase cells or control HEK293T-Luciferase cells were seeded in 384-well plates in growth medium and stimulated with known STING agonists or novel compounds. Supernatants were removed after 20 hours of treatment and secretory reporter gene activity was measured using the Quanti-Luc detection system (Invivogen) on a Spectramax i3X luminometer.

For series [5], the system named is immortalized human fibroblasts. On the set-up: method as in PMID 26646986. The note with it: cited from earlier work.
The target in series [6] is T4, recombinant CTT domain of R232 STING (Homo sapiens, UniProt Q86WV6, H232R).
T4 construct: corresponding to the soluble domain of STING (138 to 379 aa) protein; purchased Cayman Chemicals (STING); Invitrogen (TBK1) 22816 (STING); A31514 (TBK1)
Briefly: In vitro kinase assay, recombinant CTT domain of R232 STING plus recombinant TBK1. Format: biochemical. The following applies: cell free, immunoblot. On the procedure: 50ng of recombinant STING protein (Cayman Chemicals Cat# 22816) corresponding to the soluble domain of STING (138 to 379 aa) protein or 1 μl of ER fraction (8mg/ml) containing full length STING from R232.hSTING was incubated with 20 ng of recombinant full length TBK1 protein (Invitrogen, Cat# A31514) in the presence/absence of test compound in 20 μl reaction buffer (50mM Tris-HCl of pH 7.4, 100mM NaCl, 5mM MgCl2, 5mM MnCl2, 10% glycerol, 0.2mM Na3VO4, 20mM β-glycero-PO4, 0.5mM ATP) and 0.01% BSA at 30 °C for 45 min. The reaction was quenched by addition of 2 μl of 10X EDTA to a final concentration of […]. Samples were treated with 4x gel loading dye followed by electrophoresis in 10% SDS-PAGE gels and transferred to Immobilon-P membranes (Millipore). […] Anti-rabbit HRP labelled secondary antibody (Abcam) and Clarity Max™ western ECL substrate (Biorad, Cat# 1705062) were used for visualization of bands using a BioRad XRS plus imager.
(In western blotting, separated proteins are transferred to a membrane and probed.)

Series [7] has as its target H232 variant of human STING (Homo sapiens, UniProt Q86WV6). Nature of the series: Luciferase (ISRE.ISG reporter) assay in HEK293T cells stably expressing H232 hSTING. It counts as cell-based. The following applies: ISRE.ISG54 luciferase reporter, 18 hours, read-out: estimated EC50, H232 variant.
Text: as §1, §2

For another series, the system named is parent HEK293T cells. Briefly: Luciferase assay in parent (control) HEK293T cells without STING. Format: cell-based, human. The following applies: HEK293T cells that do not express STING (S1 Fig). On the procedure:
as §2

The test system of series [8] is ligand binding domain of the R232 variant of STING. On the set-up: method as in PMID 26646986. The following applies: cited from earlier work.

Values after ≈ are worked out from the molar mass of the structure shown.

T2 sequence (Q3TBT3 whole entry): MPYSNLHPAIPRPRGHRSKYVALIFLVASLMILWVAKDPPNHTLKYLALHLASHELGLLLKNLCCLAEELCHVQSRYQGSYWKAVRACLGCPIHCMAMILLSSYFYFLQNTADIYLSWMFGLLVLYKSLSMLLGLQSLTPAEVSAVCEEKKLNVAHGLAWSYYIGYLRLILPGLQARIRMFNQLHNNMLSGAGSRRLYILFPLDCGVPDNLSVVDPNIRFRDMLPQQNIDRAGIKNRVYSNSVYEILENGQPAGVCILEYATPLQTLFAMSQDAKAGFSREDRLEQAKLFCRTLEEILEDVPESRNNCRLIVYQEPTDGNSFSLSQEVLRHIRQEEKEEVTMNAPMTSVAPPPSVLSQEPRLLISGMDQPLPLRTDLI
T1 sequence (Q86WV6 whole entry R71H/G230A/R293Q): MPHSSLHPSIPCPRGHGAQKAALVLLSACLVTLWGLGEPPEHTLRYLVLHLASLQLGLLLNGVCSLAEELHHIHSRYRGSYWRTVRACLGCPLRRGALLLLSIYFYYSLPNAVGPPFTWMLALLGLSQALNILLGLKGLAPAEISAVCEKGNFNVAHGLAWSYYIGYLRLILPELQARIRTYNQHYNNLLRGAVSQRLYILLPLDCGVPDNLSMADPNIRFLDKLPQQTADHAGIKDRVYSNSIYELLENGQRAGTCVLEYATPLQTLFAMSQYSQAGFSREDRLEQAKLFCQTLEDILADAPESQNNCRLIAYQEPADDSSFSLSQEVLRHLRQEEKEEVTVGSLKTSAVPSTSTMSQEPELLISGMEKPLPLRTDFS
T4 sequence (Q86WV6 138-379 H232R): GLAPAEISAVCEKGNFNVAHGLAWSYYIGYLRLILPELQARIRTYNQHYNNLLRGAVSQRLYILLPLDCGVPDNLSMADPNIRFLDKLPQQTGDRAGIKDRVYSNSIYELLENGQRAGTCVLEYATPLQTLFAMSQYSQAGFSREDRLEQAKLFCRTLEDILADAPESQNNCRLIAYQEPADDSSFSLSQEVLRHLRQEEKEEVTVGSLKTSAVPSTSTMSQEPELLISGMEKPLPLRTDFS
Sequence of R232 STING (R232-HEK293T cells) (Q86WV6 whole entry H232R): as the sequence (Q86WV6 whole entry R71H/G230A/R293Q) above, with H71R, A230G, H232R, Q293R counted along it
T3 sequence (Q86WV6 whole entry R293Q): as the sequence (Q86WV6 whole entry R71H/G230A/R293Q) above, with H71R, A230G counted along it

`O=C(NCc1ccco1)c1ccc2c(c1)N(Cc1c(F)cccc1Cl)C(=O)CS2` [Compound G10, 4-(2-Chloro-6-fluorobenzyl)-N-(furan-2-ylmethyl)-3-oxo-3,4-dihydro-2H-benzo[b][1,4]thiazine-6-carboxamide]: the “induction of pro-inflammatory genes incl. NFκB pathway” value in [1] is listed as “induced several pro-inflammatory genes”. In series [2], the “ligand induced change in STING melting temperature, R232-HEK293T cells” value is reported as “did not demonstrate a significant ligand induced change”. In addition, the “THP-1 EC50” value at HAQ STING (THP-1 cells) is “Nil @ 30uM”. Besides, the “phosphorylation of mSTING or mIRF3, parent CT26 line” value in series [3] was “did not lead to phosphorylation”. Also, the solubility in series [4] was determined as 20 µM (≈ 8.62 µg/mL). Also, at Q variant of human STING, the “activity against the Q variant” value was “barely active”. In series [5] (STING knockout fibroblasts), the “activity in STING knockout fibroblasts” value was “inactive”. For the same compound, the “activation of the NFκB pathway in immortalized human fibroblasts” value in series [5] is “did not activate”. Moreover, the “formation of pSTING by TBK1, recombinant CTT domain of R232 STING” value in [6] is “activated”. In series [7], the EC50 was 4.3 µM. The “response of parent HEK293T cells (reporter gene expression)” value with parent HEK293T cells is listed as “unresponsive”. In addition, the “direct engagement with ligand binding domain of R232 STING (DSF)” value in [8] is reported as “no evidence of direct engagement”.

Usually solubility stands for the dissolved amount per volume that the medium holds. For orientation: EC50 means the concentration that produces a half-maximal response.
